Experimental data taken from US20130143886A1, “METHODS FOR PRESERVING AND/OR INCREASING RENAL FUNCTION USING XANTHINE OXIDOREDUCTASE INHIBITORS” (priority 2006, published 2013).
Marks after values point to notes of the source that are not given here.

What was measured:
[1] = system: remnant kidney (RK) rats; experiment: Plasma uric acid in remnant kidney rats; type: in vivo, Male Wistar rats
Description: Male Wistar rats (295-340 g) were used to produce rats with remnant kidney (RK) as follows. […] Rats were then assigned to one of four treatment groups: Group 1, RK control rats (n=7); Group 2, RK+febuxostat (Fx) rats (n=8); Group 3, RK+oxonic acid (OA) rats (n=6); and Group 4, RK+OA+Fx (n=10). Oxonic acid (OA) (Sigma-Aldrich, St Louis Mo., USA), administered at 750 mg/kg body weight daily by oral gavage, was given starting the day after the ⅚ nephrectomy. Beginning immediately following the surgery, febuxostat was administered in drinking water at 30 mg/L (3-4 mg/kg/day), whereas the respective controls received only drinking water (with 3.5 mg/L of NaCl added to keep an equivalent salt concentration to the Fx-containing water). All groups were treated for four weeks. Body weight (beginning just before surgery) and food and water intakes were measured daily. Systolic blood pressure, measured in conscious rats by a tail cuff sphygmomanometer, and plasma uric acid (UA) levels were measured at just before surgery (namely, at baseline) and at the end of the four weeks. Proteinuria was measured at baseline and at the end of two and four weeks. A renal micropuncture procedure along with systemic blood pressure monitoring under pentobarbital anesthesia was performed at the end of four weeks followed by morphologic evaluation of the renal preglomerular microvasculature. Food and water intake were determined daily. Systolic blood pressure (SBP) was measured by a tail-cuff sphygmomanometer using an automated system (XBP-100; Kent Scientific Co, Torrington, Conn., USA) in conscious animals. […] Plasma uric acid was quantified using a commercial kit (Diagnostic Chemicals Ltd, Charlottetown, PEI, Canada). Proteinuria was determined by turbidimetry by the method of trichloroacetic acid as described in Henry R J et al., “Turbidimetric determination of proteins with sulfosalicylic and tricholoroacetic acids”, Proc Soc Exp Biol Med 92:748-751 (1956), the contents of which are herein incorporated by reference.

[2] = system: hyperuricemic gout patients; experiment: FOCUS long-term open-label study: eGFR, serum creatinine and serum urate; type: in vivo, human; settings: for GFR (estimated by MDRD, mean) / sCr (mean) / sUA (mean): all subjects
Description: The objective of this study was to assess the long-term renal function effects, measured as estimated GFR (eGFR), in a cohort of hyperuricemic gout patients treated febuxostat. Febuxostat was administered at a dosing regimen that chronically maintained a serum urate level (sUA) of <6.0 mg/dL. Of 145 subjects completing a 28-day, double-blind, placebo-controlled trial (See, Becker M A, Schumacher H R, Jr., Wortmann R L, MacDonald P A, Palo […], et al., “Febuxostat, a novel nonpurine selective inhibitor of xanthine oxidase: a twenty-eight-day, multicenter, phase II, randomized, double-blind, placebo-controlled, dose-response clinical trial examining safety and efficacy in patients with gout.” Arthritis and rheumatism, March: 52(3):916-23 (2005)), 116 enrolled in the long-term, 5.5 year Febuxostat Open-label Clinical trial of Urate-lowering efficacy and […] (FOCUS) study. Baseline data were collected upon entry to the initial 28-day trial. Subjects initially received febuxostat 80 mg/day; between weeks 4 to 24 the dose of febuxostat could be titrated to 40 or 120 mg/day to maintain a sUA between <6.0 mg/dL but not lower than 3.0 mg/dL. Age 18 to 85 years with a history or presence of gout as defined by the American College of Rheumatology (Wallace S L, Robinson […], Yu T F, “Preliminary criteria for the classification of the acute arthritis of primary gout.” Arthritis and rheumatism. 1977 April; 20(3):895-900 (1977)). sUA level of ≧8.0 mg/dL at screening for the initial 28-day, double-blind study. […] GFR was estimated (eGFR) using the Modification of Diet in Renal Disease (MDRD) equation shown below: […] otherwise, S=0.742 if subject is female and 1 if male. The predictors, time (year), average sUA on study drug, baseline eGRF, and sUA change from baseline were evaluated for a relationship to eGFR change from baseline using a repeated measures linear model. Backwards selection (p=0.1) was used to reduce the model down to those predictors that best explained the eGRF change from baseline.

[3] = system: Mice of the species/strain B6C3F1; experiment: Histopathological examination of the kidney after 13 weeks of oral gavage dosing; type: in vivo; settings: for Vacuolar Degeneration of Renal Proximal Tubules (number of animals): 12 animals examined, 13 weeks
Description: Mice of the species/strain B6C3F1 of an initial age of 6 weeks were dosed via oral gavage with febuxostat suspended in 0.5% methyl cellulose. The daily dose administered was either 0 mg (i.e., the control group), 3 mg, 12 mg, 24 mg, or 48 mg. Histopathological examination of the kidney was carried out after 13-weeks of dosing for vacuolar degeneration of renal proximal tubules (a known naturally occurring change in rodents).

Cc1nc(-c2ccc(OCC(C)C)c(C#N)c2)sc1C(=O)O [febuxostat, 2-[3-cyano-4-(2-methylpropoxy)phenyl]-4-methylthiazole-5-carboxylic acid]
Plasma uric acid as % of the value measured in the RK control rats ([1]; RK rats receiving febuxostat, end of four weeks, difference not statistically significant): approximately 63% | Plasma uric acid in OA-treated rats (in words) ([1]; febuxostat added to OA-treated RK rats): prevented the'rise of uric acid levels | Measures of renal function (GFR estimated by MDRD and sCr) (in words) ([2]; 5-year study period): stable over the 5-year study period | Baseline eGFR in a subsequent febuxostat study vs FOCUS baseline (in words) ([2]; 18 subjects who completed FOCUS and enrolled in another febuxostat study): all but 1 of these subjects had a baseline eGRF in the new study that was higher | GFR (estimated by MDRD, mean) ([2]; Year 1 (n = 115)): 65.7 mL/min | sCr (mean) ([2]; Year 1 (n = 115)): 1.2 mg/dL | sUA (mean) ([2]; Year 1 (n = 115), excludes initial 28-day trial): 5.1 mg/dL | GFR (estimated by MDRD, mean) ([2]; Year 2 (n = 84)): 66.0 mL/min | sCr (mean) ([2]; Year 2 (n = 84)): 1.2 mg/dL | sUA (mean) ([2]; Year 2 (n = 84)): 5.1^b mg/dL | GFR (estimated by MDRD, mean) ([2]; Year 3 (n = 71)): 63.2 mL/min | sCr (mean) ([2]; Year 3 (n = 71)): 1.3 mg/dL | sUA (mean) ([2]; Year 3 (n = 71)): 5.0 mg/dL | GFR (estimated by MDRD, mean) ([2]; Year 4 (n = 67)): 64.2 mL/min | sCr (mean) ([2]; Year 4 (n = 67)): 1.3 mg/dL | sUA (mean) ([2]; Year 4 (n = 67)): 4.7^b mg/dL | GFR (estimated by MDRD, mean) ([2]; Year 5 (n = 60)): 65.0 mL/min | sCr (mean) ([2]; Year 5 (n = 60)): 1.3 mg/dL | sUA (mean) ([2]; Year 5 (n = 60)): 4.8 mg/dL | mean serum urate (sUA) ([2]; baseline GFR <60, Year 1): 5.1 mg/dL | mean serum urate (sUA) ([2]; baseline GFR <60, Year 2): 4.8 mg/dL | mean serum urate (sUA) ([2]; baseline GFR <60, Year 3): 4.8 mg/dL | mean serum urate (sUA) ([2]; baseline GFR <60, Year 4): 4.5 mg/dL | mean serum urate (sUA) ([2]; baseline GFR <60, Year 5): 4.6 mg/dL | mean serum urate (sUA) ([2]; baseline GFR ≧60, Year 1): 5.2 mg/dL | mean serum urate (sUA) ([2]; baseline GFR ≧60, Year 2): 5.1 mg/dL | mean serum urate (sUA) ([2]; baseline GFR ≧60, Year 3): 5.1 mg/dL | mean serum urate (sUA) ([2]; baseline GFR ≧60, Year 4): 4.7 mg/dL | mean serum urate (sUA) ([2]; baseline GFR ≧60, Year 5): 4.9 mg/dL | eGFR benefit (in words) ([2]; limited data obtained during Year 6): even greater evidence of eGFR benefit | Predicted eGFR improvement for each 1.0 mg/dL reduction in sUA ([2]; modeling, repeated measures linear model): 1.0 mL/min | Relationship of sUA reduction from baseline to eGFR (in words) ([2]; p=0.02): correlated with greater improvements in eGFR over time | Maintenance of sUA ([2]; throughout the study, regardless of baseline eGFR): < 6.0 mg/dL | Vacuolar Degeneration of Renal Proximal Tubules (number of animals) ([3]; Daily Dose 3, Female): 1 | Vacuolar Degeneration of Renal Proximal Tubules (number of animals) ([3]; Daily Dose 3, Male): 7* | Vacuolar Degeneration of Renal Proximal Tubules (number of animals) ([3]; Daily Dose 12, Female): 1 | Vacuolar Degeneration of Renal Proximal Tubules (number of animals) ([3]; Daily Dose 12, Male): 5** | Vacuolar Degeneration of Renal Proximal Tubules (number of animals) ([3]; Daily Dose 24, Female): 0 | Vacuolar Degeneration of Renal Proximal Tubules (number of animals) ([3]; Daily Dose 24, Male): 2** | Vacuolar Degeneration of Renal Proximal Tubules (number of animals) ([3]; Daily Dose 48, Female): 2 | Vacuolar Degeneration of Renal Proximal Tubules (number of animals) ([3]; Daily Dose 48, Male): 1** | Vacuolar degeneration of the renal proximal tubules (in words) ([3]; male animals): reduced the amount of vacuolar degeneration of the renal proximal tubules in a statistically significant fashion
